Experimental data: US11433048B2, “CXCR4 receptor-binding compounds useful for increasing interferon level” (CENTRE NATIONAL de la RECHERCHE SCIENTIFIQUE, priority 2016, dated 2022)
Structures can show the parent of a compound that is named as a salt. Where two headings read alike, the source gives them in different places.

What was measured:
[1] = test system: HIV-activated pDC; settings: ELISA, AMD3100 20 μM pre-treatment, then CB, HIV overnight
[2] = test system: HIV-activated pDC; type: cell-based, human
[3] = AMD3100 20 μM pre-incubation, histamine or CB 10 μM, HIV-X4 overnight, normalized to RPL13A
[4] = AMD3100 alone, HIV-stimulated pDC
[5] = AMD-3100 20 μM, then CB 10 μM, HIV overnight, normalized to RPL13A

## c1cc(CN2CCCNCCNCCCNCC2)ccc1CN1CCCNCCNCCCNCC1 [AMD3100, plerixafor]
[1]
  IFN-a production inhibited by histamine or CB in HIV-activated pDC (FIG. 2): could restore
[2]; [3]
  IFN-a mRNA expression inhibited by histamine or CB in HIV-activated pDC (FIG. 1): could restore
  IFN-β mRNA expression inhibited by histamine or CB in HIV-activated pDC (FIG. 1): could restore
  TRAIL mRNA expression inhibited by histamine or CB in HIV-activated pDC (FIG. 1): could restore
[2]; AMD3100 (20 μM) 1 hour, then histamine or CB (10 μM) 1 hour, HIV-1 overnight
  biological activities of histamine and CB on HIV activated-pDC: drastically abolished
[2]; [4]
  TRAIL expression by HIV-activated pDC: did not block
  type I IFN expression by HIV-activated pDC: did not block
[2]; [5]
  IFN-stimulated gene 56 (ISG56) mRNA expression in HIV-activated pDC (restoration, FIG. 3A): confirmed
  IFN-γ mRNA expression in HIV-activated pDC (restoration, FIGS. 3A-3C): confirmed
  IL-6 mRNA expression in HIV-activated pDC (restoration, FIG. 3C): confirmed

## NC(=NCc1ccc(Cl)cc1)SCCCc1cnc[nH]1 [CB, clobenpropit dihydrobromide]
[2]; amine-type compounds, 10 μM
  production of IFN-I by HIV-stimulated pDC: inhibit

## Cl.Cl.NCCc1c[nH]cn1 [histamine, Histamine dihydrochloride]
[2]
  production of IFN-I by HIV-stimulated pDC: inhibit
